These results are taken from patent USRE49816E1, “Dipeptides as inhibitors of human immunoproteasomes” (CORNELL UNIVERSITY, priority 2014, dated 2024).

Like-named read-outs stand apart in the source and are kept apart here.

The target of one series is hu i-20S β5i (Homo sapiens, UniProt P20618+P28062). The experiment in a line: Kinetic parameters of oxathiazolones vs hu i-20S β5i. The conditions noted are these: for kinact: printed value is kinact × 10^3. It is filed as biochemical.
In series [1] the test system is Karpas 1106p cells. The experiment in a line: Cytotoxicity (LD50) against Karpas lymphoma cells. It is filed as cell-based, human. The conditions noted are these: Table 3. An excerpt:
Table 3 lists the inhibition kinetic parameters, selectivity index, and calculated log Ps of selected dipeptides.

Series [2] has as its system Karpas 1106p cells. The experiment in a line: Cytotoxicity (LD50) against Karpas lymphoma cells. It counts as cell-based, human. The conditions noted are these: Table 4.
The target in a further series is hu i-20S β5i-subunit (Homo sapiens, UniProt P20618+P28062). The experiment in a line: N,C-capped dipeptides IC50, Ac-ANW-AMC fluorescence assay. It is filed as biochemical. The settings on record: for SI (selectivity index): Hu c-20S over Hu i-20S.
Series [3] relates to proteasome inside the Karpas 1106p cells. The experiment in a line: Cell-based Proteasome-Glo assay after compound removal. Further details: species or system human. The conditions noted are these: 4 hours, read-out: Proteasome-glo β5-IC50.
The next series deals with hu c-20S β5c-subunit (Homo sapiens, UniProt P20618+P28074). The experiment in a line: N,C-capped dipeptides IC50, succ-LLVY-AMC fluorescence assay. It counts as biochemical.
A further series has as its target hu c-20S β5c (Homo sapiens, UniProt P20618+P28074). The experiment in a line: Kinetic parameters of oxathiazolones vs hu c-20S β5c. It counts as biochemical. The settings on record: Hu20S β5c; from slopes of kobs vs [I].
Another series concerns Karpas cells. The experiment in a line: Accumulation of poly-ubiquitinylated proteins in Karpas cells (anti-ub blot). The conditions noted are these: 24 hours treatment. It is filed as cell-based, human. As for the experimental part:
FIGS. 5A-C show experimental results relating to SAR studies and target engagement inside the cells. FIG. 5A is a graph showing experimental results relating to inhibition of i-20S β5i and c-20S β5c by selected dipeptides. […] FIG. 5C is an image of an SDS-page gel showing accumulation of poly-ubiquitinylated (ub) proteins. Karpas cells were treated with dipeptides, or with bortezomib as a control, at indicated concentrations for 24 hours, and the poly-ub proteins in the lysates were blotted with anti-ub antibody and visualized with a second antibody directed against the first antibody and tagged with a dye that absorbs infrared light (Odyssey® CLx imaging system, LICOR).

Method for hu c-20S β5c-subunit: (§1) All inhibitory assays for N,C capped dipeptides were performed in a black solid-bottom 96-well plate. In general, compound plates were prepared starting from 10 mM in 3× series dilution to 15 μM. 1 μl of DMSO stock was transferred to a black 96-well plate and 100 μL of reaction mixture were added 15 μM N-acetyl-Alanine-Asparagine-Tryptophan-7-amino-4-methylcourmarin (Ac-ANW-AMC) or 25 μM succinyl-Leucine-Leucine-Valine-Tyrosine-7-amino-4-methyl-courmarin (succ-LLVY-AMC), 0.4 nM hu i-20S β5i-subunit or 0.2 nM hu c-20S β5c-subunit, 0.02% SDS, 1% BSA, 0.5 mM EDTA in 20 mM HEPES buffer at pH7.5. The plates were then spun at 1000 rpm for 1 minute, and the fluorescence units of each well were recorded at λex=360 nm, λem=460 nm for 2 hours. The slopes of the initial linear range of the time course were used to calculate the velocity, and relative activities were normalized to the velocities of the DMSO control.
Method for hu i-20S β5i-subunit: as §1

On to `O=c1oc(-c2ccc(-c3ccccc3)cc2)ns1` [HT2004], for which affinity on hu i-20S β5i was put at a Ki of 1400 nM.
`COC[C@H](NC(=O)[C@H](CC(=O)NOC(C)(C)C)NC(=O)CCc1ccccc1)C(=O)NCc1cccc(OC)c1` [DPLG-2160, (S)—N^4-(tert-butoxy)-N^1—-((S)-3-methoxy-1-((3-methoxybenzyl)amino)-1-oxopropan-2-yl)-2-(3-phenylpropanamido)succinamide] yielded an LD50 in the series on Karpas 1106p cells [1] of 0.05 µM. In addition, in the series on Karpas 1106p cells [2], the “LD50 Karpas” value was determined as 0.05 µM. Further, the IC50 was found to be 9.4 nM against hu i-20S β5i-subunit, 19 nM in series [3] and 98 nM against hu c-20S β5c-subunit. Moreover, the “SI (selectivity index)” value on hu i-20S β5i-subunit came to 10.
On to `C[C@H](NC(=O)[C@H](CC(=O)NOC(C)(C)C)NC(=O)CCc1ccccc1)C(=O)NCc1cccc2[nH]ccc12` [DPLG-2083, (S)—N^1—((S)-1-(((1H-indol-4-yl)methyl)amino)-1-oxopropan-2-yl)-N^4-(tert-butoxy)-2-(3-phenylpropanam-ido)succinamide], for which, in the series on Karpas 1106p cells [1], the LD50 was 0.254 µM. Also, the “LD50 Karpas” value in the series with Karpas 1106p cells [2] is 0.254 µM. The 50% inhibitory concentration (IC50) against hu i-20S β5i-subunit was 25 nM; in series [3], 160 nM; against hu c-20S β5c-subunit, 240 nM. The “SI (selectivity index)” value on hu i-20S β5i-subunit is 10.
As for `C[C@H](NC(=O)[C@H](CC(=O)NOC(C)(C)C)NC(=O)CCc1ccccc1)C(=O)NCc1cccc2ccccc12` [DPLG-2058], the LD50 in the series on Karpas 1106p cells [1] was determined as 34.4 µM. The “LD50 Karpas” value in the series on Karpas 1106p cells [2] amounted to 34.4 µM. Besides, the IC50 in series [3] worked out at 9 nM.
Turning to `COC[C@H](NC(=O)OC(C)(C)C)C(=O)N[C@@H](C)C(=O)NCc1cccc2ccccc12` [DPLG-2032, tert-butyl ((S)-3-methoxy-1-(((S)-1-((naphthalen-1-ylmethyl)amino)-1-oxopropan-2-yl)amino)-1-oxopropan-2-yl)carbamate], in the series on Karpas 1106p cells [1], the LD50 was 37 µM. The “LD50 Karpas” value with Karpas 1106p cells [2] was >100 µM. Further, the IC50 is 77800 nM on hu i-20S β5i-subunit, > 100000 nM in series [3] and > 100000 nM against hu c-20S β5c-subunit.
With `O=c1oc(-c2ccccn2)ns1` [HT1043], the kinact/KI at hu c-20S β5c is 0.2 M⁻¹ s⁻¹. In addition, on hu i-20S β5i (Hu20S β5i), the kinact/KI is 129 M⁻¹ s⁻¹ and the kinact is 0.00025 s⁻¹. Also, the Ki on hu i-20S β5i (Hu20S β5i, read-out: KI) turned out to be 2000 nM.
As for `C[C@H](NC(=O)[C@H](CC(=O)NOC(C)(C)C)NC(=O)CCCc1ccccc1)C(=O)NCc1cccc2ccccc12` [DPLG-2127, (S)—N4-(tert-butoxy)-N1-((S)-1-((naphthalen-1-ylmethyl)amino)-1-oxopropan-2-yl)-2-(4-phenylbutanamido)succinamide], the LD50 in the series on Karpas 1106p cells [1] is >100 µM. Further, the “LD50 Karpas” value in the series on Karpas 1106p cells [2] is >100 µM. The IC50 in series [3] is 160 nM.
In the series on Karpas 1106p cells [1], `COC[C@H](NC(=O)[C@H](CC(=O)NOC(C)(C)C)NC(=O)CCc1ccccc1)C(=O)NCc1cccc2ccccc12` [DPLG-2086, (S)—N^4-(tert-butoxy)-N^1—((S)-3-methoxy-1-((naphthalen-1-ylmethyl)amino)-1-oxopropan-2-yl)-2-(3-phenylpropanamido)succinamide] came in with an LD50 of 0.46 µM. Besides, the “accumulation of poly-ubiquitinylated proteins” value in the series with Karpas cells is on record as “accumulation of poly-Ub proteins”. Further, the “LD50 Karpas” value with Karpas 1106p cells [2] was determined as 0.46 µM. Moreover, the IC50 in series [3] came to 5 nM.
In turn, `Cc1ccc(S(=O)(=O)N[C@@H](CC(=O)NOC(C)(C)C)C(=O)N[C@@H](C)C(=O)NCc2cccc3ccccc23)cc1` [DPLG-2091, (S)—N4-(tert-butoxy)-2-((4-methylphenyl)sulfonamido)-N1-((S)-1-((naphthalen-1-ylmethyl)amino)-1-oxopropan-2-yl)succinamide] gave an LD50 in the series with Karpas 1106p cells [1] of 5.3 µM. Besides, in the series with Karpas 1106p cells [2], the “LD50 Karpas” value was determined as 5.3 µM. Further, the results for the IC50 (against hu i-20S β5i-subunit; in series [3]; against hu c-20S β5c-subunit) were 26 nM, 64 nM and 2300 nM, respectively. Besides, the “SI (selectivity index)” value at hu i-20S β5i-subunit was 88.
In the case of `Cc1sc(-c2nsc(=O)o2)cc1[N+](=O)[O-]` [HT1171], the kinact/KI on hu c-20S β5c came out at 10.1 M⁻¹ s⁻¹. Besides, at hu i-20S β5i (Hu20S β5i), the kinact/KI came to 1010 M⁻¹ s⁻¹ and the kinact was determined as 0.00077 s⁻¹. Moreover, the Ki on hu i-20S β5i (Hu20S β5i, read-out: KI) stood at 760 nM.
Consider `C[C@H](NC(=O)[C@H](CC(=O)NC1COC1)NC(=O)CCc1ccccc1)C(=O)NCc1cccc2ccccc12` [DPLG-2130, (S)—N1-((S)-1-((naphthalen-1-ylmethyl)amino)-1-oxopropan-2-yl)-N4-(oxetan-3-yl)-2-(3-phenylpropanamido)succinamide], for which the LD50 with Karpas 1106p cells [1] was determined as 67.8 µM. Also, the “LD50 Karpas” value in the series with Karpas 1106p cells [2] was 67.8 µM. Further, in series [3], the IC50 came to 1130 nM.
Take `COC[C@H](NC(=O)[C@H](CC(=O)NOC(C)(C)C)NS(=O)(=O)c1ccc(C)cc1)C(=O)NCc1cccc2ccccc12` [DPLG-2150, (S)—N^4-(tert-butoxy)-N^1—((S)-3-methoxy-1-((naphthalen-1-ylmethyl)amino)-1-oxopropan-2-yl)-2-((4-methylphenyl)sulfonamido)succinamide]: the LD50 with Karpas 1106p cells [1] came to 0.8 µM. Besides, in the series with Karpas 1106p cells [2], the “LD50 Karpas” value worked out at 0.8 µM. The results for the IC50 (against hu i-20S β5i-subunit; in series [3]; against hu c-20S β5c-subunit) were 4.4 nM, 9 nM and 610 nM, respectively. In addition, the “SI (selectivity index)” value at hu i-20S β5i-subunit is on record as 139.
With `CC(C)C[C@H](NC(=O)[C@H](Cc1ccccc1)NC(=O)c1cnccn1)B(O)O` [Bortezomib, reference compound], in the series on Karpas cells, the “accumulation of poly-ubiquitinylated proteins” value was “accumulation”. Also, in the series on Karpas 1106p cells [2], the “LD50 Karpas” value is 0.0017 µM. The IC50 in series [3] is 0.6 nM.
As for `C[C@H](NC(=O)[C@H](CC(=O)NOC(C)(C)C)NC(=O)CCc1ccccc1)C(=O)NCc1cccc2ncccc12` [DPLG-2073, (S)—N^4-(tert-butoxpropan-2-yl)-2-(3-phenylpropanami-do)succinamide], the LD50 in the series with Karpas 1106p cells [1] was >100 µM. In addition, the IC50 on hu i-20S β5i-subunit amounted to 1370 nM; at hu c-20S β5c-subunit, 13300 nM. The “SI (selectivity index)” value on hu i-20S β5i-subunit was determined as 10.
In the case of `C[C@H](NC(=O)[C@H](CC(=O)NOC(C)(C)C)NC(=O)C(F)(F)F)C(=O)NCc1cccc2ccccc12` [DPLG-2106, (S)—N4-(tert-butoxy)-N1-((S)-1-((naphthalen-1-ylmethyl)amino)-1-oxopropan-2-yl)-2-(2,2,2-trifluoroacetamido)succinamide], the LD50 with Karpas 1106p cells [1] was 7.8 µM. Moreover, the “LD50 Karpas” value in the series with Karpas 1106p cells [2] was 7.8 µM. The IC50 in series [3] worked out at 1460 nM.
For the compound `COC[C@H](NC(=O)[C@H](CC(=O)NC1COC1)NS(C)(=O)=O)C(=O)NCc1cccc2ccccc12` [DPLG-2219, (S)—N^1—((S)-3-methoxy-1-((naphthalen-1-ylmethyl)amino)-1-oxopropan-2-yl)-2-(methylsulfonamido)-N^4-(oxetan-3-yl)succinamide], the LD50 in the series with Karpas 1106p cells [1] was >100 µM. Moreover, on hu i-20S β5i-subunit, the IC50 is 4730 nM and the “SI (selectivity index)” value is >21. At hu c-20S β5c-subunit, the IC50 was > 100000 nM.
